Here are results for 59 molecules from patent US8889677B2, “Substituted triazoles useful as mGlu5 receptor modulators” (Boehringer Ingellheim International GmbH, priority 2012, dated 2014).

The EC50 is the concentration at which the effect is half-maximal.

The assay deals with T1, human recombinant mGluR5 (Homo sapiens, UniProt P41594).
T1 construct: expressed in transfected cells; host or cells: HEK 293 cell line cultured with tetracycline, hygromycin and geneticin; tetracycline removed 3-7 days before the assay
T1 sequence (P41594 21-1212): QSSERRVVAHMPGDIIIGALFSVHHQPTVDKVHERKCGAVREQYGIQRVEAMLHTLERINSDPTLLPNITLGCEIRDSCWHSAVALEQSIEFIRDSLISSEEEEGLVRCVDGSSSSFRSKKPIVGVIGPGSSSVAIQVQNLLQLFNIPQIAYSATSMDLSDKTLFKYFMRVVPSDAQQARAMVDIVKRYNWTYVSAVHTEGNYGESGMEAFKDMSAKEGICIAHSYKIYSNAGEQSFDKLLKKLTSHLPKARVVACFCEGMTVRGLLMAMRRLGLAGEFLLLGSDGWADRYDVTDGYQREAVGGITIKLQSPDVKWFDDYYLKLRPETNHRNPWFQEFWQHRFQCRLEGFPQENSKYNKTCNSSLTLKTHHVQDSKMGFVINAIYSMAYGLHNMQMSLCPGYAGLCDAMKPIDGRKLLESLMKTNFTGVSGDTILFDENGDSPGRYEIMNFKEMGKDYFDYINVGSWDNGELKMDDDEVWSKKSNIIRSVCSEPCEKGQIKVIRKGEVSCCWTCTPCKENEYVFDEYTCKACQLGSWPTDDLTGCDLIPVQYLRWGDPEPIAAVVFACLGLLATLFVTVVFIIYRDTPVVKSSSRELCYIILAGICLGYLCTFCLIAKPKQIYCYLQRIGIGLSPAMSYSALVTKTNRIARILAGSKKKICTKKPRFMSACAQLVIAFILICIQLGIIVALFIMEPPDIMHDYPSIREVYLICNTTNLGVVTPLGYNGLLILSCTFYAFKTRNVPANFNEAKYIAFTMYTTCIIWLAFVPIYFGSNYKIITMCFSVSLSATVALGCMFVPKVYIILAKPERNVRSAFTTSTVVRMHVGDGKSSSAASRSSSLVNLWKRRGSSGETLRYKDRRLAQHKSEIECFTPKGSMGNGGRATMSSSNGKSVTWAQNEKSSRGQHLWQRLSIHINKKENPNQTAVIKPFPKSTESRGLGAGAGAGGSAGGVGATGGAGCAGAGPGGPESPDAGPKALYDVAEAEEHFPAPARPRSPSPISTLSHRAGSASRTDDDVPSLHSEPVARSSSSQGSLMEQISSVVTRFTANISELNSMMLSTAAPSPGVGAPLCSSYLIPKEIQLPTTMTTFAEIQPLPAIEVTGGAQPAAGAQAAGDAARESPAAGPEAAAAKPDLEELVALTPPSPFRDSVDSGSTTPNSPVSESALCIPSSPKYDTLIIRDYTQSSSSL
Description: positive modulation of mGluR5, calcium based FLIPR assay in HEK 293 cells. As to conditions: HEK 293 cell line expressing human recombinant mGluR5; EC50 of the modulation of the glutamate response (glutamate approx. 5% basal stimulation); peak height of Ca release fluorescence signal. Put shortly: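 HEK 293 cells expressing human mGluR5 (tetracycline-free medium 3-7 days before), loaded with Calcium-4 dye, in Ringer buffer pH 7.4, 1% DMSO. Compound pre-incubated 5 min, then glutamate at about 5% of maximal effect added; EC50 from peak Ca2+ fluorescence by nonlinear regression, scaled between DMSO (100%) and 10 μM CDPPB (200%) controls.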
Turning to `COc1cc(N2CCN(C(=O)Cn3nc(-c4cccc(C(C)C)c4)nc3-c3ccccc3)CC2)ncn1` [Example 07.10.34.], the 50% effective concentration (EC50) was 157 nM. To `O=C(Cn1nc(-c2ccc(F)cc2)nc1-c1ccc(F)cc1)N1CCN(c2cc(N3CCC3)ncn2)CC1` [Example 07.08.22.] belongs 280 nM.

As to `COC[C@@H](C)Oc1cc(N2CCN(C(=O)Cn3nc(-c4ccc(F)cc4)nc3-c3ccc(F)cc3)CC2)ncn1` [Example 07.09.14.], the concentration for a half-maximal effect (EC50) is 38 nM.

Regarding `COc1cc(N2CCN(C(=O)Cn3nc(-c4ccc(F)cn4)nc3-c3ccc(F)cc3)CC2)ncn1` [Example 07.04.141.], the EC50 stood at 932 nM. Then `COc1ccc(-c2nc(-c3ccc(F)cc3)n(CC(=O)N3CCN(c4cc(OC)ncn4)CC3)n2)cc1` [Example 07.04.034.], with 52 nM. For the molecule `COc1cc(N2CCN(C(=O)Cn3nc(-c4ccc(F)c(C)c4)nc3CC(C)C)CC2)ncn1` [Example 07.04.109.], the concentration giving a half-maximal response (EC50) is 824 nM.

For the molecule `Cc1cc(-c2nc(C3CCCCC3)n(CC(=O)N3CCN(c4ncc(Cl)cn4)CC3)n2)ccc1F` [Example 07.04.069.], the concentration giving a half-maximal response (EC50) came out at 229 nM. Then `COCc1ccc(-c2nc(-c3ccccc3)nn2CC(=O)N2CCN(c3ncccn3)CC2)cc1` [Example 07.10.24.], with 300 nM.

`Cc1cc(-c2nc(C3CCCCC3)n(CC(=O)N3CCN(c4cccnn4)CC3)n2)ccc1F` [Example 07.04.072.]: the half-maximal effective concentration (EC50) was found to be 257 nM. For `O=C(Cn1nc(-c2ccc(F)cc2)nc1-c1ccc(F)cc1)N1CCN(c2ccncn2)CC1` [Example 07.04.003.], the EC50 is 259 nM. To `COc1cc(N2CCN(C(=O)Cn3nc(-c4ccc(F)cc4)nc3-c3ccccc3)CC2)ncn1` [Example 07.10.32.] belongs 225 nM; to `COc1ccnc(N2CCN(C(=O)Cn3nc(-c4ccc(F)c(C)c4)nc3C3CCCC(C)C3)CC2)c1` (centres unmarked) [Example 07.04.148.], 918 nM; to `COc1cccc(-c2nc(-c3ccc(F)cc3)n(CC(=O)N3CCN(c4ncccn4)CC3)n2)c1` [Example 07.04.028.], 30 nM. Then `CCCc1nc(-c2ccc(F)c(C)c2)nn1CC(=O)N1CCN(c2cc(OC)ncn2)CC1` [Example 07.04.080.], with 771 nM; and `Cc1ccnc(N2CCN(C(=O)Cn3nc(-c4ccc(F)cc4)nc3CCc3ccccc3)CC2)c1` [Example 07.04.151.], with 560 nM. Then `CN1CCN(c2cc(N3CCN(C(=O)Cn4nc(-c5ccc(F)cc5)nc4-c4ccc(F)cc4)CC3)ncn2)CC1=O` [Example 07.08.14.], with 822 nM; and `O=C(Cn1nc(-c2ccc(F)cc2)nc1-c1ccc(F)cc1)N1CCN(c2cc(OCC3CCCO3)ncn2)CC1` (centres unmarked) [Example 07.09.02.], with 59 nM; and `COc1cc(N2CCN(C(=O)Cn3nc(-c4ccc(F)c(C)c4)nc3-c3ccccc3)CC2)ncn1` [Example 07.04.060.], with 55 nM. `C=C(C)c1nc(-c2ccccc2)nn1CC(=O)N1CCN(c2ncccn2)CC1` [Example 07.10.27.]: the EC50 worked out at 1470 nM. To `COc1ccc(-c2nc(-c3ccccc3)n(CC(=O)N3CCN(c4ccccn4)CC3)n2)cc1OC` [Example 07.02.18.] belongs 227 nM.

As for `O=C(Cn1nc(-c2ccc(F)cc2)nc1C1CCCC1)N1CCN(c2ncccn2)CC1` [Example 07.04.046.], the half-maximal effective concentration (EC50) came to 586 nM.

For `CCc1nc(-c2ccc(F)c(C)c2)nn1CC(=O)N1CCN(c2ncccn2)CC1` [Example 07.04.092.], the EC50 was 654 nM.

In the case of `O=C(Cn1nc(-c2ccc(F)cc2)nc1C1CCCCC1)N1CCN(c2ncccn2)CC1` [Example 07.04.031.], the EC50 is 661 nM. With `O=C(Cn1nc(-c2ccc(F)cc2)nc1-c1ccc(F)cc1)N1CCN(c2ncc(Br)cn2)CC1` [Example 07.03.04.], the EC50 came to 50 nM. To `CCN(CC)c1cc(N2CCN(C(=O)Cn3nc(-c4ccc(F)cc4)nc3-c3ccc(F)cc3)CC2)ncn1` [Example 07.08.15.] belongs 205 nM; to `COc1ccnc(N2CCN(C(=O)Cn3nc(-c4ccc(F)cc4)nc3-c3ccc(F)cc3)CC2)n1` [Example 07.03.10.], 67 nM. Then `O=C(Cn1nc(-c2ccc(F)cc2)nc1-c1ccccc1)N1CCN(c2ccccn2)CC1` [Example 07.10.40.], with 128 nM; and `O=C(Cn1nc(-c2ccc(F)cc2)nc1-c1ccc(F)cc1)N1CCN(c2cc(Br)ccn2)CC1` [Example 07.01.03.], with 80 nM; and `CCC(C)c1nc(-c2ccc(F)c(C)c2)nn1CC(=O)N1CCN(c2ncccn2)CC1` (centres unmarked) [Example 07.04.101.], with 294 nM. Then `CCCc1nc(-c2ccc(OC(F)F)cc2)nn1CC(=O)N1CCN(c2ccccn2)CC1` [Example 7.04.167], with 527 nM. Turning to `Cc1ccc(N2CCN(C(=O)Cn3nc(-c4ccc(F)cc4)nc3-c3ccc(F)cc3)CC2)nc1` [Example 07.02.06.], the EC50 was found to be 155 nM. Then `O=C1CC(COc2cc(N3CCN(C(=O)Cn4nc(-c5ccc(F)cc5)nc4-c4ccc(F)cc4)CC3)ncn2)CN1` (centres unmarked) [Example 07.09.24.], with 101 nM; and `O=C(Cn1nc(-c2cccc(F)c2)nc1-c1cccc(F)c1)N1CCN(c2ncccn2)CC1` [Example 07.04.023.], with 370 nM; and `CN(CCO)c1cc(N2CCN(C(=O)Cn3nc(-c4ccc(F)cc4)nc3-c3ccc(F)cc3)CC2)ncn1` [Example 07.08.09.], with 332 nM. Regarding `CN(CCO)CCOc1cc(N2CCN(C(=O)Cn3nc(-c4ccc(F)cc4)nc3-c3ccc(F)cc3)CC2)ncn1` [Example 07.09.25.], the EC50 came to 301 nM. `CCCc1nc(-c2ccc(F)c(C)c2)nn1CC(=O)N1CCN(c2cc(C)ccn2)CC1` [Example 07.04.082.]: the concentration giving a half-maximal response (EC50) was determined as 306 nM. Then `CN1CCN(CCCOc2cc(N3CCN(C(=O)Cn4nc(-c5ccc(F)cc5)nc4-c4ccc(F)cc4)CC3)ncn2)CC1` [Example 07.09.26.], with 252 nM; and `COc1cc(-c2nc(-c3ccc(F)cc3)n(CC(=O)N3CCN(c4ccccn4)CC3)n2)ccc1F` [Example 07.04.157.], with 36 nM; and `COc1ccc(-c2nc(-c3ccccc3)n(CC(=O)N3CCN(c4cc(C)ccn4)CC3)n2)cc1` [Example 07.04.160.], with 80 nM. Consider `COc1ccnc(N2CCN(C(=O)Cn3nc(-c4ccc(F)c(C)c4)nc3C(C)C)CC2)c1` [Example 07.04.088.], for which the half-maximal effective concentration (EC50) worked out at 896 nM.

Turning to `COc1cccc(-c2nc(C(C)C)n(CC(=O)N3CCN(c4ncccn4)CC3)n2)c1` [Example 07.04.161.], the half-maximal effective concentration (EC50) came to 1520 nM. On to `COc1ccnc(N2CCN(C(=O)Cn3nc(-c4ccc(F)c(C)c4)nc3CC(C)C)CC2)c1` [Example 07.04.107.], for which the 50% effective concentration (EC50) is 500 nM. In the case of `COc1cc(N2CCN(C(=O)Cn3nc(-c4ccc(F)c(C)c4)nc3C3CCC(C)CC3)CC2)ncn1` (centres unmarked) [Example 07.04.132.], the EC50 was 960 nM. Then `O=C(Cn1nc(-c2ccc(F)cc2)nc1C#Cc1ccccc1)N1CCN(c2ccccn2)CC1` [Example 07.11.01., 2-(3-(4-fluoro-phenyl)-5-phenylethynyl-(1,2,4)triazol-1-yl)-1-(4-pyridin-2-yl-piperazin-1-yl)-ethanone], with 98 nM; and `CCCCc1nc(-c2ccc(F)c(C)c2)nn1CC(=O)N1CCN(c2ccccn2)CC1` [Example 07.04.116.], with 697 nM; and `COc1cc(N2CCN(C(=O)Cn3nc(-c4ccc(F)c(Cl)c4)nc3-c3ccccc3)CC2)ncn1` [Example 07.10.37.], with 101 nM. Then `O=C(Cn1nc(-c2ccc(F)cc2)nc1-c1ccc(F)cc1)N1CCN(c2cc(O[C@H]3COC[C@H]3O)ncn2)CC1` [Example 07.09.15.], with 224 nM. `Cc1cc(C#N)nc(N2CCN(C(=O)Cn3nc(-c4ccc(F)cc4)nc3-c3ccc(F)cc3)CC2)n1` [Example 07.03.15.]: the concentration giving a half-maximal response (EC50) was determined as 574 nM.

As for `COc1cc(-c2nc(-c3ccc(F)cc3)n(CC(=O)N3CCN(c4ncccn4)CC3)n2)ccc1F` [Example 07.04.156.], the EC50 came out at 18 nM. Then `COCCN(C)c1cc(N2CCN(C(=O)Cn3nc(-c4ccc(F)cc4)nc3-c3ccc(F)cc3)CC2)ncn1` [Example 07.08.03.], with 238 nM. For the molecule `COc1ccc(-c2nc(C3CCCCC3)n(CC(=O)N3CCN(c4ccccn4)CC3)n2)cc1` [Example 07.02.25.], the 50% effective concentration (EC50) amounted to 424 nM.

Regarding `CCCc1nc(-c2ccc(F)c(C)c2)nn1CC(=O)N1CCN(c2cc(OC)ccn2)CC1` [Example 07.04.081.], the half-maximal effective concentration (EC50) came to 353 nM. To `CCCc1nc(-c2ccc(F)c(C)c2)nn1CC(=O)N1CCN(c2ccccn2)CC1` [Example 07.04.083.] belongs 497 nM; to `O=C(Cn1nc(-c2ccc(F)cc2)nc1-c1ccc(F)cc1)N1CCN(c2ccc(Cl)cn2)CC1` [Example 07.04.12.], 176 nM; to `COc1cnnc(N2CCN(C(=O)Cn3nc(-c4ccc(F)cc4)nc3-c3ccc(F)cc3)CC2)c1` [Example 07.04.017.], 421 nM. To `COc1cnc(N2CCN(C(=O)Cn3nc(-c4ccc(F)cc4)nc3-c3ccc(F)cc3)CC2)nc1` [Example 07.04.001., 2-(3,5-Bis-(4-fluoro-phenyl)-(1,2,4)triazol-1-yl)-1-(4-(5-methoxy-pyrimidin-2-yl)-piperazin-1-yl)-ethanone] belongs 25 nM. With `Cc1ccnc(N2CCN(C(=O)Cn3nc(-c4ccc(F)cn4)nc3-c3ccc(F)cc3)CC2)c1` [Example 07.04.138.], the EC50 worked out at 1010 nM. On to `O=C(Cn1nc(-c2ccc(F)cc2)nc1C#CC1CCCCC1)N1CCN(c2ccccn2)CC1` [Example 07.11.02.], for which the EC50 was 416 nM. Then `COc1cc(OC)nc(N2CCN(C(=O)Cn3nc(-c4ccc(F)cc4)nc3-c3ccc(F)cc3)CC2)n1` [Example 07.03.13.], with 224 nM.
